Experimental data: PubChem BioAssay AID1963837 (Molecular Pharmacology Branch, DTP, NCI, 2024)

Test system: 843126-344-R-J1-PDC complex spheroid viability
Assay: Anticancer human tumor 843126-344-R-J1-PDC patient-derived melanoma cell line growth inhibition [POLQ]
Settings: for IC50: curve of first compound; for viability, T/C: stronger effect = lower value
Procedure, shortened: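 Complex spheroid viability model combining PDC tumour cells with endothelial (HUVEC) and MSC stromal cells. Novobiocin, ART-558 or RP6685 were tested singly and in combination with standard and investigational anticancer drugs. Each was titrated in half-log steps from near clinical Cmax, or from 10 microM where Cmax was unknown.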

[1] = second compound 0.0316 µM, first compound 0.0316 µM
[2] = second compound 0.0316 µM, first compound 0.1 µM
[3] = second compound 0.0316 µM, first compound 0.316 µM
[4] = second compound 0.0316 µM, first compound 1 µM
[5] = second compound 0.0316 µM, first compound 3.16 µM
[6] = second compound 0.0316 µM, first compound 10 µM
[7] = second compound 0.1 µM, first compound 0.0316 µM
[8] = second compound 0.1 µM, first compound 0.1 µM
[9] = second compound 0.1 µM, first compound 0.316 µM
[10] = second compound 0.1 µM, first compound 1 µM
[11] = second compound 0.1 µM, first compound 3.16 µM
[12] = second compound 0.1 µM, first compound 10 µM
[13] = second compound 0.316 µM, first compound 0.0316 µM
[14] = second compound 0.316 µM, first compound 0.1 µM
[15] = second compound 0.316 µM, first compound 0.316 µM
[16] = second compound 0.316 µM, first compound 1 µM
[17] = second compound 0.316 µM, first compound 3.16 µM
[18] = second compound 0.316 µM, first compound 10 µM
[19] = second compound 1 µM, first compound 0.0316 µM
[20] = second compound 1 µM, first compound 0.1 µM
[21] = second compound 1 µM, first compound 0.316 µM
[22] = second compound 1 µM, first compound 1 µM
[23] = second compound 1 µM, first compound 3.16 µM
[24] = second compound 1 µM, first compound 10 µM
[25] = second compound 3.16 µM, first compound 0.0316 µM
[26] = second compound 3.16 µM, first compound 0.1 µM
[27] = second compound 3.16 µM, first compound 0.316 µM
[28] = second compound 3.16 µM, first compound 1 µM
[29] = second compound 3.16 µM, first compound 3.16 µM
[30] = second compound 3.16 µM, first compound 10 µM
[31] = second compound 10 µM, first compound 0.0316 µM
[32] = second compound 10 µM, first compound 0.1 µM
[33] = second compound 10 µM, first compound 0.316 µM
[34] = second compound 10 µM, first compound 1 µM
[35] = second compound 10 µM, first compound 3.16 µM
[36] = second compound 10 µM, first compound 10 µM
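Wherever viability, T/C is given: spheroids exposed to drugs for seven days before readout.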

SMILES: C=CC(=O)N1CCN(c2nc(=O)n(-c3c(C)ccnc3C(C)C)c3nc(-c4c(O)cccc4F)c(F)cc23)C(C)C1 (stereo unspecified) + COC1C(OC(N)=O)C(O)C(Oc2ccc3c(O)c(NC(=O)c4ccc(O)c(CC=C(C)C)c4)c(=O)oc3c2C)OC1(C)C
- IC50 (second compound 0.0316 µM): > 10 µM
- IC50 (second compound 0.1 µM): > 10 µM
- IC50 (second compound 0.316 µM): > 10 µM
- IC50 (second compound 1 µM): > 10 µM
- IC50 (second compound 3.16 µM): > 10 µM
- IC50 (second compound 10 µM): > 10 µM
- viability, T/C [1]: 98.3%
- viability, T/C [2]: 100%
- viability, T/C [3]: 97.4%
- viability, T/C [4]: 89%
- viability, T/C [5]: 94.9%
- viability, T/C [6]: 71.4%
- viability, T/C [7]: 110%
- viability, T/C [8]: 108%
- viability, T/C [9]: 101%
- viability, T/C [10]: 113%
- viability, T/C [11]: 92.8%
- viability, T/C [12]: 80.5%
- viability, T/C [13]: 88.7%
- viability, T/C [14]: 111%
- viability, T/C [15]: 103%
- viability, T/C [16]: 85%
- viability, T/C [17]: 101%
- viability, T/C [18]: 78.6%
- viability, T/C [19]: 99.8%
- viability, T/C [20]: 95%
- viability, T/C [21]: 104%
- viability, T/C [22]: 108%
- viability, T/C [23]: 114%
- viability, T/C [24]: 68%
- viability, T/C [25]: 107%
- viability, T/C [26]: 74.1%
- viability, T/C [27]: 105%
- viability, T/C [28]: 113%
- viability, T/C [29]: 97.7%
- viability, T/C [30]: 77.7%
- viability, T/C [31]: 82.7%
- viability, T/C [32]: 107%
- viability, T/C [33]: 92.9%
- viability, T/C [34]: 98.3%
- viability, T/C [35]: 104%
- viability, T/C [36]: 83.5%

SMILES: CC1COCCN1c1cc(-c2ccnn2C)c2ccnc(-c3ccn[nH]3)c2n1 (stereo unspecified) + COC1C(OC(N)=O)C(O)C(Oc2ccc3c(O)c(NC(=O)c4ccc(O)c(CC=C(C)C)c4)c(=O)oc3c2C)OC1(C)C
- IC50 (second compound 0.0316 µM): 1.04 µM
- IC50 (second compound 0.1 µM): 0.875 µM
- IC50 (second compound 0.316 µM): 0.784 µM
- IC50 (second compound 1 µM): 1.27 µM
- IC50 (second compound 3.16 µM): 0.918 µM
- IC50 (second compound 10 µM): 1.1 µM
- viability, T/C [1]: 98.7%
- viability, T/C [2]: 69.8%
- viability, T/C [3]: 66.3%
- viability, T/C [4]: 54.2%
- viability, T/C [5]: 35.5%
- viability, T/C [6]: 34.2%
- viability, T/C [7]: 81.1%
- viability, T/C [8]: 76.5%
- viability, T/C [9]: 67.1%
- viability, T/C [10]: 47.2%
- viability, T/C [11]: 33.4%
- viability, T/C [12]: 26.4%
- viability, T/C [13]: 92.4%
- viability, T/C [14]: 73.7%
- viability, T/C [15]: 60.4%
- viability, T/C [16]: 46.2%
- viability, T/C [17]: 38.1%
- viability, T/C [18]: 23.7%
- viability, T/C [19]: 65.7%
- viability, T/C [20]: 77.5%
- viability, T/C [21]: 71.3%
- viability, T/C [22]: 53.5%
- viability, T/C [23]: 36.3%
- viability, T/C [24]: 32%
- viability, T/C [25]: 73.3%
- viability, T/C [26]: 83%
- viability, T/C [27]: 58.5%
- viability, T/C [28]: 45.9%
- viability, T/C [29]: 42.1%
- viability, T/C [30]: 25%
- viability, T/C [31]: 73.3%
- viability, T/C [32]: 77.5%
- viability, T/C [33]: 61.5%
- viability, T/C [34]: 46.1%
- viability, T/C [35]: 42.9%
- viability, T/C [36]: 24.3%

SMILES: CC1COCCN1c1cc(C2(S(C)(=N)=O)CC2)nc(-c2ccnc3[nH]ccc23)n1 (stereo unspecified) + COC1C(OC(N)=O)C(O)C(Oc2ccc3c(O)c(NC(=O)c4ccc(O)c(CC=C(C)C)c4)c(=O)oc3c2C)OC1(C)C
- IC50 (second compound 0.0316 µM): > 10 µM
- IC50 (second compound 0.1 µM): > 10 µM
- IC50 (second compound 0.316 µM): > 10 µM
- IC50 (second compound 1 µM): 8.62 µM
- IC50 (second compound 3.16 µM): 9.28 µM
- IC50 (second compound 10 µM): 9.69 µM
- viability, T/C [1]: 99%
- viability, T/C [2]: 98%
- viability, T/C [3]: 110%
- viability, T/C [4]: 99.6%
- viability, T/C [5]: 59.2%
- viability, T/C [6]: 55.9%
- viability, T/C [7]: 90.9%
- viability, T/C [8]: 80.3%
- viability, T/C [9]: 97.6%
- viability, T/C [10]: 80.6%
- viability, T/C [11]: 65.7%
- viability, T/C [12]: 55.3%
- viability, T/C [13]: 103%
- viability, T/C [14]: 79.8%
- viability, T/C [15]: 81.2%
- viability, T/C [16]: 89%
- viability, T/C [17]: 56.9%
- viability, T/C [18]: 53.5%
- viability, T/C [19]: 84.6%
- viability, T/C [20]: 88.3%
- viability, T/C [21]: 78.5%
- viability, T/C [22]: 96.3%
- viability, T/C [23]: 69.2%
- viability, T/C [24]: 47.1%
- viability, T/C [25]: 87.1%
- viability, T/C [26]: 89.1%
- viability, T/C [27]: 89%
- viability, T/C [28]: 79.5%
- viability, T/C [29]: 74%
- viability, T/C [30]: 48%
- viability, T/C [31]: 94.8%
- viability, T/C [32]: 101%
- viability, T/C [33]: 74.1%
- viability, T/C [34]: 89.7%
- viability, T/C [35]: 69.3%
- viability, T/C [36]: 48.7%
